Data as given in paper PMC6624297 (Cell Death & Disease, 2019).

What was measured:
[1] = tested on: MDA-MB-231 cells; assay: MTT assay MDA-MB-231; type: cell-based; conditions: Homo sapiens, 24h of treatment, mean ± SD
Protocol: (§1) Details are given in Supplementary Materials and Methods. Using probability unit and weighted regression method to calculate the IC50 value of compounds.
(§2) Total cells in the logarithmic growth phase were collected, digested using 0.25% pancreatic enzymes, and then diluted into single-cell suspensions using phosphate-buffered solution (PBS). These cells were seeded into 96-well plates at 4× 10^3-5× 10^3 cells per well (100 µL per well) and then A549, H460, OVCAR-3, SGC7901, MDA-MB-231, HCT116 and HepG2 were cultured at 37°Cin an incubator containing 5% CO2. After cell complete attachment, 100 µL of different concentrations of compounds (0.625 μM, 1.25 μM, 2.5μM, 5 μM, 10 μM) were added to the cells after the nutrient solution in each well was discarded, while no compound except 0.1% DMSO was added to cells in the control group; at the same time, each concentration was set up to 5 wells. In addition, 5 wells in each 96-well plate only received 100 µL of nutrient solution as a blank control. The plates were taken out after the cells were incubated with compounds for 24 h, and 20 µL of MTT solution (5 mg/mL) (Wuhan Boster Biotechnology Limited Company, Wuhan, China; item No. AR1156) was added into all the wells. After another time of incubation for 4 h at 37 °C, the nutrient solution in each well was discarded slowly, and 150 µL of DMSO was added to each well. The plates were shaken on a shaking table for 20 min. When the crystals were fully dissolved, the blank wells were used to zero the plate reader. The optical density (OD) of each well was detected at 490 nm. The IC50 value was determined as the concentration of the inhibitor that caused 50% inhibition. Using probability unit and weighted regression method to calculate the IC50 value of compounds.

[2] = tested on: SGC7901 cells; assay: MTT assay SGC7901; type: cell-based; conditions: Homo sapiens, SGC-7901, 24h of treatment, mean ± SD
Protocol: as §1, §2

[3] = target: EGFR kinase (Homo sapiens, UniProt P00533); assay: ADP-Glo kinase assay, EGFR; type: biochemical; conditions: averages from triplicate assays
Chain of EGFR kinase (P00533 25-1210): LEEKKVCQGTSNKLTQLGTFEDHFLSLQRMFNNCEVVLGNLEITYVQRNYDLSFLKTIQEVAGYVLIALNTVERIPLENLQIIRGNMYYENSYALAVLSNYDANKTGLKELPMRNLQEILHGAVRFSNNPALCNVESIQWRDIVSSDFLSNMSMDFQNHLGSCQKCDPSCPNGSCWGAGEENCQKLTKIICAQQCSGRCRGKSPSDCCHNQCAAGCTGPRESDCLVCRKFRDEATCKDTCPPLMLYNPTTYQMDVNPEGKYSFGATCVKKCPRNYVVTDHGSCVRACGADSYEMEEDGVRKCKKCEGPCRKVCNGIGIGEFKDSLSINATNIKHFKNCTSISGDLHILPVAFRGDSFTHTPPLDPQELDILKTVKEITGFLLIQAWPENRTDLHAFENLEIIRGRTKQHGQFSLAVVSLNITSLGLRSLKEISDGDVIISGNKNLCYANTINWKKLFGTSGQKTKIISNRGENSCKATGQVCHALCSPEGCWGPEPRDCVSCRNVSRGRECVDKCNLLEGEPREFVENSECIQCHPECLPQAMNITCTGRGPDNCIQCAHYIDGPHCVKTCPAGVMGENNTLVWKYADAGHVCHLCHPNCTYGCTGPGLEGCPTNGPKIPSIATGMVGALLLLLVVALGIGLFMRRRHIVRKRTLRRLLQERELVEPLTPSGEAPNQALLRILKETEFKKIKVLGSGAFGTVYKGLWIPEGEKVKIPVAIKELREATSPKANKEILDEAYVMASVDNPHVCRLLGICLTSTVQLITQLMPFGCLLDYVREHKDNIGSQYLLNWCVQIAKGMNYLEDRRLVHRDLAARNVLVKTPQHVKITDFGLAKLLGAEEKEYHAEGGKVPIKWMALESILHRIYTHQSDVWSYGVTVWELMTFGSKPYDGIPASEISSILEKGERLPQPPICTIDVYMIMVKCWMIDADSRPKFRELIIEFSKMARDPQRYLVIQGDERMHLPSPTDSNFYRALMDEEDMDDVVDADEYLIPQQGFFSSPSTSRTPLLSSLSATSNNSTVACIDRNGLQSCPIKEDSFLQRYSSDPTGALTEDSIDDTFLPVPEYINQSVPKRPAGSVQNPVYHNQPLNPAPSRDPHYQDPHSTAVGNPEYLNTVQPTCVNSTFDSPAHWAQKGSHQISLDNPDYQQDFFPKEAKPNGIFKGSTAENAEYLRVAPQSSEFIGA
Protocol: (§3) The ADP-Glo™ kinase assay (Promega, Madison, WI) was used to screen target compounds for their inhibition effects for BRaf, EGFR kinase. The kinase assay was carried out in a 96-well plate, in a volume of 25 μL HEPES (pH 7.3) solvent containing 1.6 μg/mL EGF, and 20 ng of EGFR kinase, or 50 ng BRaf kinase, and 10 μM ATP (Promega, Madison, WI). […] Reactions in each well were started immediately by adding ATP and kept going for half an hour under 30 °C in a constant temperature incubator (Bluepard, Shanghai, China). After the plate cooled for 5 min at room temperature, 25 μl of ADP-Glo reagent was added into each well to stop the reaction and consume the remaining […] within 40 min. At the end, 50 μl of kinase detection reagent was added into the well and incubated for 1 h to produce a luminescence signal.

[4] = tested on: OVCAR-3 cells; assay: MTT assay OVCAR-3; type: cell-based; conditions: Homo sapiens, 24h of treatment, mean ± SD
Protocol: as §1, §2

[5] = tested on: HCT-116 cells; assay: MTT assay HCT-116; type: cell-based; conditions: Homo sapiens, 24h of treatment, mean ± SD
Protocol: as §1, §2

[6] = target: BRaf kinase (Homo sapiens, UniProt P15056); assay: ADP-Glo kinase assay, BRaf; type: biochemical; conditions: averages from triplicate assays
Chain of BRaf kinase (P15056 whole entry): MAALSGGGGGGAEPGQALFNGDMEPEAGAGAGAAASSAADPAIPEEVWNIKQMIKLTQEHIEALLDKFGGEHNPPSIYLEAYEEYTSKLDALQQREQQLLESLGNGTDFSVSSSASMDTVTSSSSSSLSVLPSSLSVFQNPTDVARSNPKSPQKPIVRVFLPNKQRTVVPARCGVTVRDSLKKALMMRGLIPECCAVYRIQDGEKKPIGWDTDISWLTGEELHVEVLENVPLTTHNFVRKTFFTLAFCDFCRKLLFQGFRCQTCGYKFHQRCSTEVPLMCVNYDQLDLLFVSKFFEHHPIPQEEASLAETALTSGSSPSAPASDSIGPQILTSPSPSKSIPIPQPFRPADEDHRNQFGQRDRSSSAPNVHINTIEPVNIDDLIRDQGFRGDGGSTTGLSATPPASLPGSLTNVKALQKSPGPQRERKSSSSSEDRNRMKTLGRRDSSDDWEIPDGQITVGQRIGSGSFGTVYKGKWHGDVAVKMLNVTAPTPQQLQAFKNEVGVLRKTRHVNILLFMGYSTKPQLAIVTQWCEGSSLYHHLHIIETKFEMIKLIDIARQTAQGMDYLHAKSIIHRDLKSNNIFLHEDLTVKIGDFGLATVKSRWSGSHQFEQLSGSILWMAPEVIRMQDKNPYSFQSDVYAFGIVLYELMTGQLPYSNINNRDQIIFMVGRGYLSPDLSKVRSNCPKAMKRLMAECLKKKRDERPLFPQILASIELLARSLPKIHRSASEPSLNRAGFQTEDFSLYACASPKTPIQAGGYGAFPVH
Protocol: as §3

[7] = target: T1, human TS (hTS) (Homo sapiens, UniProt P04818); assay: Thymidylate synthase (TS) spectrophotometric assay; type: biochemical; conditions: averages from triplicate assays
T1 construct: purchased ProSpec-Tany
T1 sequence (P04818 whole entry): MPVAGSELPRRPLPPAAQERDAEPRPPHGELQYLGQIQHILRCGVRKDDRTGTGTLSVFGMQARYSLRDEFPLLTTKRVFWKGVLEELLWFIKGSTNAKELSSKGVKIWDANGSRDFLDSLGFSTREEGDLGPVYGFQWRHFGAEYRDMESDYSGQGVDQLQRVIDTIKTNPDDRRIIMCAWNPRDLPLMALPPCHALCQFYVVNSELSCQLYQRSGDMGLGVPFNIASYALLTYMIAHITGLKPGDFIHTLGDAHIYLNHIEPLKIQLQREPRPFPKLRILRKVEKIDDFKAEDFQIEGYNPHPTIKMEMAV
Protocol: Recombinant human thymidylate synthase purchased from ProSpec-Tany Company. TS was assayed spectrophotometrically at 30 °C and pH 7.4 in a mixture containing 0.1 M 2-mercaptoethanol, 0.0003 M (6R,S)-tetrahydrofolate, 0.012 M formaldehyde, 0.02 M MgCl2, 0.001 M dUMP, 0.04 M Tris–HCl, 30 nM hTS, and 0.00075 M NaEDTA. […] The reaction was initiated by the addition of an amount of enzyme yielding a change in absorbance at 340 nm of 0.016/min in the absence of inhibitor.

[8] = tested on: A549 cells; assay: MTT assay A549; type: cell-based, human; conditions: Homo sapiens, A549, 24h of treatment, mean ± SD
Protocol: as §1, §2

[9] = tested on: HepG2 cells; assay: MTT assay HepG2; type: cell-based; conditions: Homo sapiens, 24h of treatment, mean ± SD
Protocol: as §1, §2

| Compound | IC50 [1] | IC50 [2] | IC50 [3] | IC50 [4] | IC50 [5] | melting point | IC50 [6] | IC50 [7] | IC50 [8] | IC50 [9] |
| --- | --- | --- | --- | --- | --- | --- | --- | --- | --- | --- |
| O=C(Nc1ccc(Cl)cc1)Nc1ccccc1NS(=O)(=O)c1c[nH]c(=O)[nH]c1=O [Compound L14f, N'-(4-chlorophenyl)-2-(2,4-dihydroxypyrimidine-5-sulfonamido)phenyl urea] | 4.54 ± 0.41 µM | 3.98 ± 0.33 µM | 2.23 µM | 6.52 ± 0.5 µM | 4.22 ± 0.31 µM | 160 to 163 °C | 1.71 µM | 2.12 µM | 1.38 ± 0.27 µM | 1.62 ± 0.1 µM |
| Cc1ccc(NC(=O)Nc2ccccc2NS(=O)(=O)c2c[nH]c(=O)[nH]c2=O)cc1 [Compound L14i, N'-(4-methylphenyl)-2-(2,4-dihydroxypyrimidine-5-sulfonamido)phenylurea] | 7.3 ± 0.1 µM | 5.13 ± 0.44 µM | > 10 µM | > 10 µM | 5.62 ± 0.61 µM | 165 to 169 °C | 5.45 µM | 6.98 µM | 1.37 ± 0.45 µM | 5.72 ± 0.21 µM |
| Cc1cccc(NC(=O)Nc2cccc(NS(=O)(=O)c3c[nH]c(=O)[nH]c3=O)c2)c1 [Compound L15h, N'-(3-methylphenyl)-3-(2,4-dihydroxypyrimidine-5-sulfonamido)phenyl urea] | 6.41 ± 0.41 µM | 4.78 ± 0.62 µM | 7.1 µM | 5.98 ± 0.6 µM | 6.15 ± 0.53 µM | 165 to 169 °C | 6.38 µM | 7.16 µM | 1.46 ± 0.5 µM | 5.97 ± 0.21 µM |
| CNC(=O)c1cc(Oc2ccc(NC(=O)Nc3ccc(Cl)c(C(F)(F)F)c3)cc2)ccn1 [Sorafenib, reference compound] | > 10 µM | > 10 µM | – | > 10 µM | > 10 µM | – | – | – | > 10 µM | 8.21 ± 0.34 µM |
| O=C(Nc1ccc(NS(=O)(=O)c2c[nH]c(=O)[nH]c2=O)cc1)Nc1ccccc1Cl [Compound L13d, N'-(2-chlorophenyl)-4-(2,4-dihydroxypyrimidine-5-sulfonamido)phenylurea] | > 10 µM | 5.3 ± 0.28 µM | 4.22 µM | 1.73 ± 0.44 µM | 4.13 ± 0.16 µM | 167 to 169 °C | 2.39 µM | 2.36 µM | 2.01 ± 0.14 µM | 6.56 ± 0.15 µM |
| O=C(Nc1ccc(Cl)cc1)Nc1cccc(NS(=O)(=O)c2c[nH]c(=O)[nH]c2=O)c1 [Compound L15f, N'-(4-chlorophenyl)-3-(2,4-dihydroxypyrimidine-5-sulfonamido)phenylurea] | 3.2 ± 0.62 µM | 4.28 ± 0.67 µM | 5.54 µM | 1.49 ± 0.28 µM | 7.61 ± 0.04 µM | 169 to 171 °C | 2.68 µM | 1.55 µM | 1.01 ± 0.11 µM | 3.07 ± 0.29 µM |
| O=C(Nc1cccc(NS(=O)(=O)c2c[nH]c(=O)[nH]c2=O)c1)Nc1ccccc1Cl [Compound L15d, N'-(2-chlorophenyl)-3-(2,4-dihydroxypyrimidine-5-sulfonamido)phenylurea] | 2.04 ± 0.29 µM | 5.25 ± 0.81 µM | 7.65 µM | 6.3 ± 0.25 µM | 2.65 ± 0.33 µM | 159 to 162 °C | 4.09 µM | 3.81 µM | 1.87 ± 0.12 µM | 4.97 ± 0.36 µM |
| O=C(Nc1ccc(NS(=O)(=O)c2c[nH]c(=O)[nH]c2=O)cc1)Nc1cccc(Cl)c1 [Compound L13e, N'-(3-chlorophenyl)-4-(2,4-dihydroxypyrimidine-5-sulfonamido)phenylurea] | 2.48 ± 1.46 µM | 3.38 ± 0.18 µM | 4.41 µM | 1.05 ± 0.42 µM | 2.46 ± 0.06 µM | 169 to 171 °C | 3.64 µM | 4.55 µM | 0.95 ± 0.05 µM | 2.81 ± 0.16 µM |
| O=C(Nc1ccc(Cl)cc1)Nc1ccc(NS(=O)(=O)c2c[nH]c(=O)[nH]c2=O)cc1 [Compound L13f, N'-(4-chlorophenyl)-4-(2,4-dihydroxypyrimidine-5-sulfonamido)phenylurea] | 8.89 ± 2.42 µM | 3.98 ± 0.05 µM | 4.65 µM | 8.04 ± 0.32 µM | 5.53 ± 0.25 µM | 175 to 177 °C | 3.59 µM | 6.3 µM | 0.99 ± 0.07 µM | 4.35 ± 0.45 µM |
| Cc1ccccc1NC(=O)Nc1ccc(NS(=O)(=O)c2c[nH]c(=O)[nH]c2=O)cc1 [Compound L13g, N'-(2-methylphenyl)-4-(2,4-dihydroxypyrimidine-5-sulfonamido)phenyl urea] | > 10 µM | 6.39 ± 0.19 µM | > 10 µM | 2.68 ± 0.38 µM | 4.75 ± 0.07 µM | 169 to 173 °C | > 10 µM | 9.25 µM | 4.68 ± 0.11 µM | 9.16 ± 0.12 µM |
| Cc1ccccc1NC(=O)Nc1ccccc1NS(=O)(=O)c1c[nH]c(=O)[nH]c1=O [Compound L14g, N'-(2-methylphenyl)-2-(2,4-dihydroxypyrimidine-5-sulfonamido)phenyl urea] | > 10 µM | 5.4 ± 0.09 µM | > 10 µM | > 10 µM | 4.82 ± 0.19 µM | 151 to 154 °C | 7.41 µM | 6.47 µM | 2.09 ± 0.72 µM | 5.59 ± 0.64 µM |
| O=C(Nc1cccc(Cl)c1)Nc1cccc(NS(=O)(=O)c2c[nH]c(=O)[nH]c2=O)c1 [Compound L15e, N'-(3-chlorophenyl)-3-(2,4-dihydroxypyrimidine-5-sulfonamido)phenylurea] | 3.13 ± 0.09 µM | 2.58 ± 0.43 µM | 4.37 µM | 1.19 ± 0.49 µM | 3.3 ± 0.07 µM | 162 to 166 °C | 2.96 µM | 2.17 µM | 0.87 ± 0.28 µM | 2.29 ± 0.29 µM |
| Cc1ccccc1NC(=O)Nc1cccc(NS(=O)(=O)c2c[nH]c(=O)[nH]c2=O)c1 [Compound L15g, N'-(2-methylphenyl)-3-(2,4-dihydroxypyrimidine-5-sulfonamido)phenyl urea] | > 10 µM | 7.04 ± 0.87 µM | > 10 µM | > 10 µM | 6.41 ± 1.83 µM | 163 to 167 °C | > 10 µM | > 10 µM | 8.75 ± 0.61 µM | 7.66 ± 0.78 µM |
| Cc1cccc(NC(=O)Nc2ccccc2NS(=O)(=O)c2c[nH]c(=O)[nH]c2=O)c1 [Compound L14h, N'-(3-methylphenyl)-2-(2,4-dihydroxypyrimidine-5-sulfonamido)phenylurea] | 7.16 ± 0.9 µM | 3.3 ± 0.15 µM | 4.28 µM | 7.3 ± 0.68 µM | 5.39 ± 0.41 µM | 155 to 158 °C | 3.61 µM | 3.52 µM | 1.45 ± 0.06 µM | > 10 µM |
| Cc1ccc(NC(=O)Nc2cccc(NS(=O)(=O)c3c[nH]c(=O)[nH]c3=O)c2)cc1 [Compound L15i, N'-(4-methylphenyl)-3-(2,4-dihydroxypyrimidine-5-sulfonamido)phenyl urea] | 9.06 ± 1.13 µM | 6.96 ± 1.53 µM | 8.67 µM | > 10 µM | 9.5 ± 1.6 µM | 173 to 175 °C | 7.23 µM | 8.3 µM | 4.18 ± 0.46 µM | 6.96 ± 0.59 µM |
